The target in assay [1] is T1, Glucose-6-phosphatase catalytic subunit 1 (Rattus norvegicus, UniProt P43428).
T1 sequence (P43428 whole entry): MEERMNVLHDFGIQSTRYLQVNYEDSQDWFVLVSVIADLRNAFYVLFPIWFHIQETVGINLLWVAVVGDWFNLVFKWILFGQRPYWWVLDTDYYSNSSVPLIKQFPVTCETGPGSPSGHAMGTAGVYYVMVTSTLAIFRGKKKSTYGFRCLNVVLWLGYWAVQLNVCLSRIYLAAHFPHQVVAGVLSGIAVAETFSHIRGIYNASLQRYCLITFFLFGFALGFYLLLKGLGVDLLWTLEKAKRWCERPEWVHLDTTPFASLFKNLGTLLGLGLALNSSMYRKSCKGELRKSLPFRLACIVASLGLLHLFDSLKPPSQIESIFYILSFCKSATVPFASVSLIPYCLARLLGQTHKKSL
Nature of the assay: Inhibition of rat liver glucose-6-phosphatase.

Assay [2] has as its system Rattus norvegicus. Kind of assay: Antihyperglycemic activity against sucrose-challenged streptozotocin-induced fasted Sprague-Dawley rat assessed as reduction in hyperglycemia at 100 mg/kg, po administered 30 mins before sucrose challenge measured after 24 hrs post sucrose dose relative to control. The arrangement: scale not given: the % may be the effect or the level left. Format: functional.

Assay [3] deals with Rattus norvegicus. Kind of assay: Antihyperglycemic activity against sucrose-challenged fasted Wistar rat assessed as reduction in blood glucose at 100 mg/kg, po administered 30 mins before sucrose challenge measured after 30 mins post sucrose dose relative to control. Also noted: scale not given: the % may be the effect or the level left. Format: functional.
Assay [4] concerns Rattus norvegicus. Kind of assay: Antihyperglycemic activity against sucrose-challenged streptozotocin-induced fasted Sprague-Dawley rat assessed as reduction in hyperglycemia at 100 mg/kg, po administered 30 mins before sucrose challenge measured after 5 hrs post sucrose dose relative to control. Format: functional. Also noted: scale not given: the % may be the effect or the level left.

The target in assay [5] is T2, Glycogen phosphorylase, liver form (Rattus norvegicus) (UniProt P09811).
T2 sequence (whole entry): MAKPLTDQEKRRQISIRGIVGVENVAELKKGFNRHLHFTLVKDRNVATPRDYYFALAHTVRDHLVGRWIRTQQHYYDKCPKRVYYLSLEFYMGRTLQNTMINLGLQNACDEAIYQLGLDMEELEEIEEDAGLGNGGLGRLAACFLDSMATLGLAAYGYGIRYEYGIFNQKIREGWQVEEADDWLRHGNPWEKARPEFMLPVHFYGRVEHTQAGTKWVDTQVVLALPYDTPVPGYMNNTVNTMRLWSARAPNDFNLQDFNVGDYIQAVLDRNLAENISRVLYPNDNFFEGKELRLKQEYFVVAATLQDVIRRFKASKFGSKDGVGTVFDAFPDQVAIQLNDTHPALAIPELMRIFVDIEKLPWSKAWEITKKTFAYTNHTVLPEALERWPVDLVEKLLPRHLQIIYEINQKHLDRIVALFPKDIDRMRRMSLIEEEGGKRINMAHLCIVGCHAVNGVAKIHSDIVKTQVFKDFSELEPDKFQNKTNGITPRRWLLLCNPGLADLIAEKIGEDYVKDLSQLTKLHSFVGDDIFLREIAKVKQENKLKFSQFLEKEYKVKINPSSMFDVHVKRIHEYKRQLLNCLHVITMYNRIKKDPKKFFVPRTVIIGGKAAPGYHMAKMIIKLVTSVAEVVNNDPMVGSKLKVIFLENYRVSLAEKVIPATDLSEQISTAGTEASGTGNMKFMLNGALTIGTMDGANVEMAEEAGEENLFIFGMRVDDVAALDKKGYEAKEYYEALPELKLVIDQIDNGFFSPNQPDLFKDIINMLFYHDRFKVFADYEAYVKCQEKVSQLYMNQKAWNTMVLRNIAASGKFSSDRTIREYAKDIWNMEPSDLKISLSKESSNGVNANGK
Kind of assay: Inhibition of rat liver glycogen […] at 100 uM.

For assay [6], the target named is Lysosomal alpha-glucosidase (Rattus norvegicus) (UniProt Q6P7A9). Nature of the assay: Inhibition of rat intestinal alpha-glucosidase at 100 uM.
Lysosomal alpha-glucosidase (Rattus norvegicus), sequence (Q6P7A9 whole entry): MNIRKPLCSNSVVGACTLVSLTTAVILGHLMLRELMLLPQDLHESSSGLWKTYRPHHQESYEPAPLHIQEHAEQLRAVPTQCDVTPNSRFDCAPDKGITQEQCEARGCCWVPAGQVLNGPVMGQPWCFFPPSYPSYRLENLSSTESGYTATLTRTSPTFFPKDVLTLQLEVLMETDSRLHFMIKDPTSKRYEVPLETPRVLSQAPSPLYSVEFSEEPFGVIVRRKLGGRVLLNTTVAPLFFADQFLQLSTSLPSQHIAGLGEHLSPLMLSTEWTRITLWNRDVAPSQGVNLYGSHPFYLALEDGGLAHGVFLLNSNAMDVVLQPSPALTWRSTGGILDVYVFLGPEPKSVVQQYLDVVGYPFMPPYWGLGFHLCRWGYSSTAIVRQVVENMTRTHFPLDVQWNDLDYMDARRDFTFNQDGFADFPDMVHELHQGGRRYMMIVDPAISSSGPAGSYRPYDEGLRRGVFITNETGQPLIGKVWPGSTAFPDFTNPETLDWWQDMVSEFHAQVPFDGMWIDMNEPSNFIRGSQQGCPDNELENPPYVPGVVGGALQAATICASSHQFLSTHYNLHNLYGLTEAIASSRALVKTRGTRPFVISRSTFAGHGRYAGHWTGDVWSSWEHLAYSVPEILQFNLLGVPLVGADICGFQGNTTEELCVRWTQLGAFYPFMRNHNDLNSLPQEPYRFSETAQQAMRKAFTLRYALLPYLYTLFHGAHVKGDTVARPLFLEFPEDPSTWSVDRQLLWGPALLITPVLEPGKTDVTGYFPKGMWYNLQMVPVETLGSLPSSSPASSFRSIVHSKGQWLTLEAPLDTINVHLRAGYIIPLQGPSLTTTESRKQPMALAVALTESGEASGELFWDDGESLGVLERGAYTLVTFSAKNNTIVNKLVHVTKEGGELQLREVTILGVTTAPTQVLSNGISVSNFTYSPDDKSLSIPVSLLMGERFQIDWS
Assay [7] concerns the target T3, Glucose-6-phosphatase catalytic subunit 1 (Rattus norvegicus) (UniProt P43428).
T3 sequence (whole entry): T1 sequence (P43428 whole entry)
Kind of assay: Inhibition of rat liver glucose-6-phosphatase at 100 uM.

For assay [8], the target named is T4, Glycogen phosphorylase, liver form (Rattus norvegicus, UniProt P09811).
T4 sequence (P09811 whole entry): T2 sequence (whole entry)
Nature of the assay: Inhibition of rat liver glycogen […].

The results in this text go back to ChEMBL document CHEMBL1151870, “Synthetic studies in butenonyl C-glycosides: Preparation of polyfunctional alkanonyl glycosides and their enzyme inhibitory activity” (Bioorg Med Chem Lett, 2009).

Molecules are shown by their SMILES.

What is called IC50 is the concentration that inhibits the measured activity by half. In general, inhibition refers to the relative decrease from the control value, in per cent. For the molecule `O=C(/C=C/c1ccccc1)C[C@@H]1O[C@H](CO)[C@@H](O)[C@H](O)[C@H]1O`, the 50% inhibitory concentration (IC50) in assay [1] amounted to 87 µM. Further, the Activity is 12.1% in the assay on Rattus norvegicus [2], 19.5% in the assay on Rattus norvegicus [3] and 2.91% in the assay on Rattus norvegicus [4]. The inhibition in assay [5] stood at 7.3%.

`CCOC(=O)C(C(=O)OCC)C(CC(=O)C[C@@H]1O[C@H](CO)[C@@H](O)[C@H](O)[C@H]1O)c1ccc(OC)c(OC)c1` (mixture of isomers): the inhibition in assay [6] is -2.3%; in assay [7] it was 36.2%; in assay [5] it was 24%.

For the molecule `O=C(/C=C/c1ccc(Cl)cc1)C[C@@H]1O[C@H](CO)[C@@H](O)[C@H](O)[C@H]1O`, the inhibition in assay [6] was -5.97%.

In the case of `COc1ccc(/C=C/C(=O)C[C@@H]2O[C@H](CO)[C@@H](O)[C@H](O)[C@H]2O)cc1`, in assay [7], the inhibition was -9.7%.

`CCOC(=O)C(C(=O)OCC)C(CC(=O)C[C@@H]1O[C@H](CO)[C@@H](O)[C@H](O)[C@H]1O)c1cccnc1` (mixture of isomers): the inhibition in assay [7] turned out to be 37.6%.

As for `O=C(/C=C/c1ccc(Cl)cc1)C[C@@H]1OC[C@@H](O)[C@H](O)[C@H]1O`, the inhibition in assay [6] was -8.3%; in assay [7], 4.7%.

For the molecule `COc1ccc(/C=C/C(=O)C[C@@H]2O[C@H](CO)[C@@H](O)[C@H](O)[C@H]2O)cc1OC`, the Activity stood at 13.4% in the assay with Rattus norvegicus [2], 26.7% with Rattus norvegicus [3] and 14.1% in the assay on Rattus norvegicus [4]. Moreover, the inhibition in assay [7] is 15%; in assay [5] it was -5.9%.

Consider `CN(C)C(=N)NC(=N)N` [METFORMIN], for which the figures for the Activity in the assay on Rattus norvegicus [2], in the assay with Rattus norvegicus [3] and in the assay on Rattus norvegicus [4] were 21.4%, 31.2% and 26.9%, respectively.

Take `O=C(/C=C/c1ccc(O)cc1)C[C@@H]1O[C@H](CO)[C@@H](O)[C@H](O)[C@H]1O`: the inhibition in assay [7] is 4.2%; in assay [5] it was -3.4%.

As to `O=C(/C=C/c1cccc([N+](=O)[O-])c1)C[C@@H]1O[C@H](CO)[C@@H](O)[C@H](O)[C@H]1O`, the inhibition in assay [6] was -10%; in assay [7], 8%; in assay [5], 15.6%.

Turning to `O=C(/C=C/c1cccnc1)C[C@@H]1O[C@H](CO)[C@@H](O)[C@H](O)[C@H]1O`, the inhibition in assay [7] was -8.1%.

With `O=C(/C=C/c1ccc2ccccc2c1)C[C@@H]1O[C@H](CO)[C@@H](O)[C@H](O)[C@H]1O`, the Activity with Rattus norvegicus [2] was 10.3%; with Rattus norvegicus [3], 25%; in the assay on Rattus norvegicus [4], 14.2%. In addition, it took 98 µM to reach half-maximal inhibition in assay [8] (IC50). For the same molecule, the inhibition in assay [7] is -7.7%.

For `O=C(/C=C/c1ccc2ccccc2c1)C[C@@H]1O[C@H](CO)[C@@H](O[C@@H]2O[C@H](CO)[C@@H](O)[C@H](O)[C@H]2O)[C@H](O)[C@H]1O`, the inhibition is -3.9% in assay [7] and -8.3% in assay [5].

With `CCOC(=O)C(C(=O)OCC)C(CC(=O)C[C@@H]1O[C@H](CO)[C@@H](O)[C@H](O)[C@H]1O)c1ccc(Cl)cc1` (mixture of isomers), the inhibition in assay [6] was -10%; in assay [7] it was -6%; in assay [5], -5.4%.

With `CCOC(=O)C(C(=O)OCC)C(CC(=O)C[C@@H]1O[C@H](CO)[C@@H](O)[C@H](O)[C@H]1O)c1ccccc1` (mixture of isomers), the inhibition in assay [7] was -3.3%.

Regarding `CCOC(=O)C(C(=O)OCC)C(CC(=O)C[C@@H]1O[C@H](CO)[C@@H](O)[C@H](O)[C@H]1O)c1ccc2ccccc2c1` (mixture of isomers), the inhibition in assay [7] was found to be 4.6%; in assay [5], 14.7%.

For `COc1cc(/C=C/C(=O)C[C@@H]2O[C@H](CO)[C@@H](O)[C@H](O)[C@H]2O)cc(OC)c1OC`, the inhibition in assay [7] was determined as 4.7%.
